Literature values in article PMC4483627 (Marine Drugs, 2015).

Target: T1, rat nAChR α3β4 (Rattus norvegicus, UniProt P04757+P12392)
T1 construct: expressed in transfected cells; host or cells: Xenopus oocytes injected with cRNA
Conditions: cited from earlier work

T1 sequence (P04757 26-499 limits assumed): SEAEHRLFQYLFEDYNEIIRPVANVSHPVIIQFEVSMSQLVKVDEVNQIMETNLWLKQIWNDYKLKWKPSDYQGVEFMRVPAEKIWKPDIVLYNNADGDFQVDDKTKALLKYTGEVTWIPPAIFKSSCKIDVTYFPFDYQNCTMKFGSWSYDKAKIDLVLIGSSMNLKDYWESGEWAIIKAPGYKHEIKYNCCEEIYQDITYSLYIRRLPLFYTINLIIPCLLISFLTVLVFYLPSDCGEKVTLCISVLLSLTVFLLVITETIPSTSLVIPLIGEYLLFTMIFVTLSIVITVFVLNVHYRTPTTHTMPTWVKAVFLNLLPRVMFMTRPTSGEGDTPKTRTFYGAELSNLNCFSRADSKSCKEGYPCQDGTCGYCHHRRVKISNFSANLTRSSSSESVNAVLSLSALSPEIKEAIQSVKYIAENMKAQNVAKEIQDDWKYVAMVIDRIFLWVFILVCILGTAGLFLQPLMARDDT
T1 sequence (P12392 21-495 limits assumed): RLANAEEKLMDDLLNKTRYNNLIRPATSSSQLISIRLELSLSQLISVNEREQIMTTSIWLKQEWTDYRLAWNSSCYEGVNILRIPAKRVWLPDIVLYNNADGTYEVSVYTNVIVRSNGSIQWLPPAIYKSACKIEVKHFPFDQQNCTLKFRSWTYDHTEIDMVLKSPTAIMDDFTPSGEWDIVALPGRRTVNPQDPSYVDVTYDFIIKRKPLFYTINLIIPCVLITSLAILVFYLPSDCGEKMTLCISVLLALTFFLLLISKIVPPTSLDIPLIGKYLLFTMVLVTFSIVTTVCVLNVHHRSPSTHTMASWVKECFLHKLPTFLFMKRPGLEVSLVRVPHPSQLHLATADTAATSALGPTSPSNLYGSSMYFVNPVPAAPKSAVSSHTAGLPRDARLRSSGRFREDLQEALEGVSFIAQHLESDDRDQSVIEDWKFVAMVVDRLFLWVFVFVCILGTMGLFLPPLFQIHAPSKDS

In the case of “G CC SHP V C SAMS P I- C * (bicyclic or more) [TxID]”, the IC50 is listed as 0.0125 µM.
